Values quoted from earlier work in patent US6716459B2, “Composition for inhibiting increase of blood sugar level or lowering blood sugar level” (priority 1998, dated 2004).

Test system: Ehrlich Ascites Tumour Cells
Conditions: in vitro, Chem. Pharm. Bull. 41(12) 2129-2131 (1993)

## C[C@H]1[C@H](C)CC[C@]2(C(=O)O)CC[C@]3(C)C(=CC[C@@H]4[C@@]5(C)C[C@@H](O)[C@H](O)C(C)(C)[C@@H]5CC[C@]43C)[C@H]12 [corosolic acid]
  activity on the mobility of grape sugar: activates the mobility of grape sugar
